# Test results taken from patent US20150344466A1 (SUMITOMO CHEMICAL COMPANY, LIMITED, priority 2013, published 2015).
# System: Culex pipiens pallens
# Assay: Knockdown spray test on adult Culex pipiens pallens (Test Example 4)
# Format: in vivo
# Conditions: topical, 0.25 h, active ingredient 0.1% w/v, 0.5 ml sprayed, within 15 minutes, read-out: knockdown rate of the test insects within 15 minutes
# Description: Ten adult Culex pipiens pallens were released in a polyethylene cup (bottom diameter: 10.6 cm), and the cup was covered with a 16-mesh nylon gauze. The polyethylene cup was placed on the bottom of a test chamber (bottom: 46 cm×46 cm, height: 70 cm). From a height of 30 cm above the upper surface of the polyethylene cup, 0.5 ml of the test drug solution was sprayed using a spray gun (a spraying pressure of 0.4 kg/cm^2). Immediately after spraying, the cup was taken out from the test chamber, and after 2 minutes, 5 minutes and 15 minutes, the number of knocked-down insects was counted to obtain a knockdown rate. The knockdown rate was calculated by the following equation.
# Knockdown Rate (%)=(Number of Knocked-down Insects/Number of Tested Insects)×100
row,SMILES,pest or weed control at 0.1 % strength [%]
1,"O=C(NCC1CCOC1)c1noc(COCc2ccccc2F)c1Br (stereo not shown) [(296), N-(tetrahydrofuran-3-ylmethyl)-5-(2-fluorobenzyloxymethyl)-4-bromoisoxazole-3-carboxamide]",≥ 80
2,"O=C(NCC1CCOCC1)c1cc(COCc2ccsc2)on1 [(108), N-(tetrahydropyran-4-ylmethyl)-5-(thiophen-3-ylmethoxymethyl)isoxazole-3-carboxamide]",≥ 80
3,"COc1ccc2cc(CCCc3cc(C(=O)NCC4CCOC4)no3)ccc2c1 (stereo not shown) [(247), N-(tetrahydrofuran-3-ylmethyl)-5-[3-(6-methoxy-2-naphthyl)propyl]isoxazole-3-carboxamide]",≥ 80
4,"O=C(NCC1CCOC1)c1noc(COCc2ccccc2F)c1I (stereo not shown) [(297), N-(tetrahydrofuran-3-ylmethyl)-5-(2-fluorobenzyloxymethyl)-4-iodoisoxazole-3-carboxamide]",≥ 80
5,"O=C(NCC1COCO1)c1cc(COCc2ccccc2)on1 (stereo not shown) [(35), N-[4-(1,3-dioxolyl)methyl]-5-benzyloxymethylisoxazole-3-carboxamide]",≥ 80
6,"O=C(NCC1CCOC1)c1ncc(COCc2ccccc2)s1 (stereo not shown) [(48), N-(tetrahydrofuran-3-ylmethyl)-5-benzyloxymethythiazole-2-carboxamide]",≥ 80
7,"CC1(CNC(=O)c2cc(COCc3ccc4c(c3)OC(F)(F)O4)on2)COC1 [(238), N-(3-methyloxetan-3-ylmethyl)-5-[5-(2,2-difluoro-1,3-benzodioxolanyl)methoxymethyl]isoxazole-3-carboxamide]",≥ 80
8,"O=C(NCC1CCOC1)c1ncc(COc2ccccc2)s1 (stereo not shown) [(47), N-(tetrahydrofuran-3-ylmethyl)-5-phenoxymethythiazole-2-carboxamide]",≥ 80
9,"O=C(NCC1CCOC1)c1cc(CCCc2ccccc2F)on1 (stereo not shown) [(245), N-(tetrahydrofuran-3-ylmethyl)-5-[3-(2-fluorophenyl)propyl]isoxazole-3-carboxamide]",≥ 80
10,"COc1ccccc1COCc1cc(C(=O)NCC2CCOC2)no1 (stereo not shown) [(227), N-(tetrahydrofuran-3-ylmethyl)-5-(2-methoxybenzyloxymethyl) isoxazole-3-carboxamide]",≥ 80
11,"O=C(NCC1CCOC1)c1cc(CCCCCCOc2ccccc2)on1 (stereo not shown) [(148), N-(tetrahydrofuran-3-ylmethyl)-5-(6-phenoxyhexyl)isoxazole-3-carboxamide]",≥ 80
12,"CC(OCc1cc(C(=O)NCC2CCOC2)no1)c1ccccc1 (stereo not shown) [(125), N-(tetrahydrofuran-3-ylmethyl)-5-[(1-phenylethyl)oxymethyl]isoxazole-3-carboxamide]",≥ 80
13,"O=C(NCC1CCOC1)c1cc(COCCCCc2ccccc2)on1 (stereo not shown) [(135), N-(tetrahydrofuran-3-ylmethyl)-5-(4-phenylbutoxymethyl)isoxazole-3-carboxylic acid-3-carboxamide]",≥ 80
14,"O=C(NCC1CCOC1)c1cc(Cc2cc3ccccc3s2)on1 (stereo not shown) [(161), N-(tetrahydrofuran-3-ylmethyl)-5-(benzo[b]thiophen-2-ylmethy)isoxazole-3-carboxamide]",≥ 80
15,"O=C(NCC1COCCO1)c1cc(COCc2ccc3ccccc3c2)on1 (stereo not shown) [(233), N-(1,4-dioxan-2-ylmethyl)-5-(2-naphthylmethoxymethyl)isoxazole-3-carboxamide]",≥ 80
16,"O=C(NCC1CCOC1)c1noc(COCc2ccc3ccccc3c2)c1CO (stereo not shown) [(209), N-(tetrahydrofuran-3-ylmethyl)-4-hydroxymethyl-5-(2-naphthylmethoxymethyl)isoxazole-3-carboxamide]",≥ 80
17,"O=C(NCC1CCOC1)c1cc(CCCc2cccc(F)c2)on1 (stereo not shown) [(251), N-(tetrahydrofuran-3-ylmethyl)-5-[3-(3-fluorophenyl)propyl]isoxazole-3-carboxamide]",≥ 80
18,"O=C(NCC1CCOCC1)c1cc(COc2ccc(SC(F)(F)F)cc2)on1 [(193), N-(tetrahydropyran-4-ylmethyl)-5-(4-trifluoromethylthiophenoxymethyl)isoxazole-3-carboxamide]",≥ 80
19,"O=C(NCC1CCOCC1)c1cc(COc2cccc(Cl)c2)on1 [(179), N-(tetrahydropyran-4-ylmethyl)-5-(3-chlorophenoxymethyl)isoxazole-3-carboxamide]",≥ 80
20,"O=C(NCC1CCOC1)c1cc(COCc2ccc(Oc3ccccc3)cc2)on1 (stereo not shown) [(117), N-(tetrahydrofuran-3-ylmethyl)-5-(4-phenoxybenzyloxymethyl) isoxazole-3-carboxamide]",≥ 80

row,SMILES,pest or weed control at 0.1 % strength [%]
1,"O=C(NCC1CCOC1)c1cc(Cc2cccc(Oc3ccccc3)c2)on1 (stereo not shown) [(163), N-(tetrahydrofuran-3-ylmethyl)-5-(3-phenoxybenzyl)isoxazole-3-carboxamide]",≥ 80
2,"O=C(NCC1CCOC1)c1cc(COCc2ccc3c(c2)OC(F)(F)O3)on1 (stereo not shown) [(236), N-(tetrahydrofuran-3-ylmethyl)-5-[5-(2,2-difluoro-1,3-benzodioxolanyl)methoxymethyl]isoxazole-3-carboxamide]",≥ 80
3,"O=C(NCC1CCOC1)c1cc(CCCCCOc2ccccc2)on1 (stereo not shown) [(147), N1-(tetrahydrofuran-3-ylmethyl)-5-(5-phenoxypentyl)isoxazole-3-carboxamide]",≥ 80
4,"O=C(NCC1CCOC1)c1cc(Cc2ccccc2Cl)on1 (stereo not shown) [(323), N-(tetrahydrofuran-3-ylmethyl)-5-(2-chlorobenzyl)isoxazole-3-carboxamide]",≥ 80
5,"O=C(NCC1CCOCC1)c1cc(COCc2ccc3c(c2)OC(F)(F)O3)on1 [(237), N-(tetrahydropyran-4-ylmethyl)-5-[5-(2,2-difluoro-1,3-benzodioxolanyl)methoxymethyl]isoxazole-3-carboxamide]",≥ 80
6,"O=C(NCC1COCO1)c1cc(CCCc2ccc3ccccc3c2)on1 (stereo not shown) [(229), N-(1,3-dioxolan-4-ylmethyl)-5-[3-(2-naphthyl)propyl]isoxazole-3-carboxamide]",≥ 80
7,"O=C(NCC1CCOCC1)c1cc(COCCCCCc2ccccc2)on1 [(138), N-(tetrahydropyran-4-ylmethyl)-5-(5-phenylpentyloymethyl)isoxazole-3-carboxamide]",≥ 80
8,"O=C(NCC1CCOC1)c1cc(Cc2ccc(C(F)(F)F)cc2)on1 (stereo not shown) [(316), N-(tetrahydrofuran-3-ylmethyl)-5-(4-trifluoromethylbenzyl)isoxazole-3-carboxamide]",≥ 80
9,"O=C(NCC1CCOC1)c1cc(COCc2ccsc2)on1 (stereo not shown) [(107), N-(tetrahydrofuran-3-ylmethyl)-5-(thiophen-3-ylmethoxymethyl)isoxazole-3-carboxamide]",≥ 80
10,"O=C(NCC1COCCO1)c1cc(CCCc2ccc3c(c2)OC(F)(F)O3)on1 (stereo not shown) [(232), N-(1,4-dioxan-2-ylmethyl)-5-[3-(5-(2,2-difluoro-1,3-benzodioxolanyl))propyl]isoxazole-3-carboxamide]",≥ 80
11,"O=C(NCC1CCOC1)c1cc(COCCCCCc2ccccc2)on1 (stereo not shown) [(137), N-(tetrahydrofuran-3-ylmethyl)-5-(5-phenylpentyloxymethyl)isoxazole-3-carboxylic acid-3-carboxamide]",≥ 80
12,"O=C(NCC1CCOCC1)c1cc(COCCCCc2ccccc2)on1 [(136), N-(tetrahydropyran-4-ylmethyl)-5-(4-phenylbutoxymethyl)isoxazole-3-carboxamide]",≥ 80
13,"O=C(NCC1CCOC1)c1cc(Cc2cc(Cl)cc(Cl)c2)on1 (stereo not shown) [(307), N-(tetrahydrofuran-3-ylmethyl)-5-(3,5-dichlorobenzyl)isoxazole-3-carboxamide]",≥ 80
14,"Cc1c(COCc2cc(C(=O)NCC3CCOC3)no2)cccc1-c1ccccc1 (stereo not shown) [(123), N-(tetrahydrofuran-3-ylmethyl)-5-(2-methyl-3-phenylbenzyloxymethyl)isoxazole-3-carboxamide]",≥ 80
15,"O=C(NCC1CCOC1)c1cc(COCc2cc(Br)cc(Br)c2)on1 (stereo not shown) [(262), N-(tetrahydrofuran-3-ylmethyl)-5-(3,5-dibromobenzyloxymethyl)isoxazole-3-carboxamide]",≥ 80
16,"C#Cc1c(C(=O)NCC2CCOC2)noc1COCc1ccc2ccccc2c1 (stereo not shown) [(250), N-(tetrahydrofuran-3-ylmethyl)-5-(2-naphthylmethoxymethyl)-4-ethynylisoxazole-3-carboxamide]",≥ 80
17,"O=C(NCC1CCOC1)c1cc(CCCBr)on1 (stereo not shown) [(248), N-(tetrahydrofuran-3-ylmethyl)-5-(3-bromopropyl)isoxazole-3-carboxamide]",≥ 80
18,"O=C(NC1CSC1)c1cc(COCc2ccccc2)on1 [(40), N-(thietan-3-yl)-5-benzyloxymethylisoxazole-3-carboxamide]",≥ 80
19,"O=C(NCC1CCOC1)c1cc(COCc2ccc(-c3ccccc3)s2)on1 (stereo not shown) [(241), N-(tetrahydrofuran-3-ylmethyl)-5-(5-phenyl-2-thienylmethoxymethyl)isoxazole-3-carboxamide]",≥ 80
20,"C#Cc1c(C(=O)NCC2CCOC2)noc1COCc1ccccc1F (stereo not shown) [(249), N-(tetrahydrofuran-3-ylmethyl)-5-(2-fluorobenzyloxymethyl)-4-ethynylisoxazole-3-carboxamide]",≥ 80
